{"source": "paper PMC12053792", "about": "(Journal of Peptide Science, 2025)", "key": {"TLR2": {"system": "TLR2", "conditions": "Pam2Cys adjuvanting moiety; ref [19]; cited from earlier work", "description": "Due to the small size of many CTAs (several under 100 amino acids in length), it is possible to produce the whole CTA synthetically via solid‐phase peptide synthesis (SPPS), coupled with native chemical ligation if required. […] An additional benefit of using palmitoyl functionality is the ability of the fatty acid chains to be incorporated into nanoparticles via sel ..."}, "BALB/c mice": {"system": "BALB/c mice", "experiment": "In vivo toxicity in healthy BALB/c mice", "conditions": "antigen alone / components administered separately"}, "anti‐BAGE4 antibody": {"system": "anti‐BAGE4 antibody", "experiment": "Competitive ELISA, antibody recognition of BAGE4 antigen", "format": "binding, rabbit", "conditions": "11 antigen concentrations between 1000 and 0.98 ng/mL, anti‐BAGE4 antibody SAB4301150 (1:250), 1 h, BAGE4-coated 384‐well plate, PBST with 0.05% Tween 20 as negative control, HRP/TMB, absorbance 450 nm", "protocol": "Antibody–antigen complexes were then added to 384‐well plates which were precoated with 10 ng/mL of antigen. The secondary antibody, specific to the primary and conjugated to horseradish peroxidase (HRP) enzyme (produced in rabbit), was added, followed by TMB for colour development.\nThe antigen was diluted to 100 ng/ml in carbonate-bicarbonate\nbuffer, then 60 μL of the antigen dilution was pipetted into the wells of Maxisorp 384 well plate.\nThe plate was diluted as required (23 dilutions were prepared) and incubated at 4 °C under\nfoil overnight. The coating solution was removed and the plate washed three times by filling\nthe wells with 200 μL PBST. The solutions or washes were removed by flicking the plate over\na sink, then patting the plate dry with a paper towel.\nRemaining protein-binding sites in the coated wells were blocked by adding 40 μL blocking\nbuffer (3% whey, 0.05% NaN3, 0.1% EDTA in PBS) to each well. The plates were covered\nwith foil and incubated for 2 h at rt or overnight at 4 °C. Plates were washed three times by\nfilling the wells with 200 μL PBS.\nIncubation with primary and secondary antibody\nIn an Abgene 96 well plate, 8 dilutions of primary antibody (anti-BAGE4 produced in rabbit;\nSigma Aldrich SAB4301150, and anti-NY-ESO-1 produced in mouse; Sigma Aldrich N2038) […]\nThe optical density at 450 nm was recorded. […]"}, "IFNγ‐secreting T‐cells": {"system": "IFNγ‐secreting T‐cells", "experiment": "In vivo immunisation, IFNγ ELISpot on splenocytes, BALB/c mice", "description": "Animal experiments were carried out with ethical approval from University of Nottingham ethical review board and under a Home Office approved project license (PP2706800). Mice were dosed with 10 nmol of material in 50 μL at Days 1, 8 and 15 (n = 3). IFNϒ ELISpot assays on splenocytes were conducted on termination at Day 21. General methods for the ELISpot can be found in the Supporting Information. Preparation of media and buffers and steps performed on Days 1 and 2 post‐termination; the ELISpot assays were performed using a laminar flow cabinet and aseptic techniques to ensure the sterility of media, reagents and plates at stages before development of the ELISpot. Development of the ELISpot on Day 4 posttermination was performed on the laboratory bench.\nThe response was measured by count of peptide‐specific IFNγ‐secreting T‐cells by ELISpot assay. Since no studies to date have addressed T‐cell responses to BAGE4 in conventional or HLA‐A2 (HHDII/DR1) transgenic mice, conventional mice were initially selected. The H‐2d haplotype (BALB/c) strain was selected for this study as the epitope predictions for peptides that bind to MHC I and II are effective for this strain (IEDB Analysis Resource). Splenocytes from the immunised mice were tested against three predicted epitope peptides from BAGE4_18–39, which should reactivate T‐cell responses in this strain of mice when immunised with BAGE4_18–39 vaccine candidates. Lipopolysaccharide (LPS; 5 μg/mL) was used as the positive control (non‐specific stimulus of the immune system).\nIn Vivo Evaluation (ELISpot Assay)\nAnimal experiments were carried out with ethical approval from University of Nottingham ethical review boards and under a Home Office approved project license (PP2706800). HLA-HHDII/DR1 (HLA-A2.1+/+ HLADR1+/+, Pasteur Institute) transgenic mice knocked out for murine MHC-I and II and expressing chimeric HLA-A2 (HHDII) and human HLA-DR1 or Balb/c mice (Charles River) aged 6-12 weeks were used. Mice were vaccinated with 10 ηmol of each immunogen at each timepoint. Doses were delivered subcutaneously (s.c.) in 50 µl volume on days 1, 8 and 15. No anaesthesia was used for injections. Responses were screened on day 21 after euthanasia by cervical dislocation. Preparation of media and buffers and steps performed on days 1 and 2 of the ELISpot assay were performed using a laminar flow cabinet and aseptic techniques to ensure the sterility of media, reagents and plates at stages before development of the ELISpot. Development of the ELISpot on day 4 can be performed on the […]\nThe following tables summarise the details of the vaccine candidates and vaccination procedure including (dose time points): […]\nTable S6. Summary of the injection schedule (including dose concentration and number) for the following vaccine candidates: BAGE418-39 candidate (co-administered with IFA), Cys-BAGE4-MalLNP conjugate, Pam2Cys-SK4-BAGE18-39 (2), and 2-LNP using BALB/c mice. […]\npeptide mixed splenocytes\n1 with standard 10 nmol SC Day 1,8 & 15 3 Day 21 ELISA on\n3 Pam2Cys-SK4- 10 nmol SC Day 1, 8 & 3 Day 1 Experiment\nPam2Cys-SK4- 10 nmol Day 1, 8 & Experiment\nElispot assays were performed using murine IFNγ capture and detection reagents according to the manufacturer’s instructions (Mabtech).\nDay 1: Coating of plates with capture antibody\n20 μL 35% ethanol was added to each well then discarded. Each plate was then washed 4 times with 200 μL of sterile distilled water per well. […]"}, "HLA‐A2": {"system": "HLA‐A2", "conditions": "ref [34], [35], [36]; cited from earlier work", "description": "(§1) Two CTA epitopes; NY‐ESO‐1_157‐165 and BAGE4_18–39 were employed as the antigenic components in our studies. […] BAGE4_18–39 represents the entire BAGE4 CTA minus the signal peptide; this antigen is expressed in 22% of melanomas and 30% of infiltrating bladder carcinomas; to our knowledge, it has not been evaluated in vivo. Inclusion of the ..."}, "CD8+ cells": {"system": "CD8+ cells", "conditions": "models vaccinated against NY‐ESO‐1; ref [34], [35], [36]; cited from earlier work", "description": "as §1"}}, "note": "Entries after “also recorded” stand apart in the source; their conditions may differ.", "data": [{"compound": "CCCCCCCCCCCCCCCC(=O)OCC(CSCC(N)C(=O)O)OC(=O)CCCCCCCCCCCCCCC", "note": "(stereo not shown)", "values": [{"measurement": "Potency relative to (R)‐analogue", "setting": "TLR2", "value": "hundredfold decrease in potency compared to the (R)‐analogue"}]}, {"compound": "BAGE4_18–39: small (22 amino acid, excluding the signal peptide) underexplored melanoma antigen (RLMKEESPVVSWWLEPEDGTAL; UniProt Q86Y28 18-39, looked up, fragment)", "values": [{"measurement": "Toxicity of antigen or components administered separately", "setting": "BALB/c mice", "value": "does not show any toxicity"}, {"measurement": "IC50", "setting": "anti‐BAGE4 antibody", "value": 11.4, "unit": "nM"}, {"measurement": "T‐cell response, median", "setting": "IFNγ‐secreting T‐cells; BAGE4 peptide + IFA, 10 nmol in 50 μL s.c., days 1, 8, 15, n = 3, day 21, restimulated with BAGE4_18–39, IFNγ ELISpot count", "value": 511}, {"measurement": "T‐cell response / ANOVA significance (in words)", "setting": "IFNγ‐secreting T‐cells; BAGE4 peptide + IFA, 10 nmol s.c., days 1, 8, 15, n = 3, restimulated with BAGE4_18–32", "value": "slightly lower responses"}, {"measurement": "T‐cell response / ANOVA significance (in words)", "setting": "IFNγ‐secreting T‐cells; BAGE4 peptide + IFA, 10 nmol s.c., days 1, 8, 15, n = 3, restimulated with BAGE4_18–39", "value": "good responses"}, {"measurement": "T‐cell response / ANOVA significance (in words)", "setting": "IFNγ‐secreting T‐cells; BAGE4 peptide + IFA, 10 nmol s.c., days 1, 8, 15, n = 3, restimulated with BAGE4_22–31", "value": "almost no response; also recorded: no significance"}, {"measurement": "Immunogenicity (in words)", "setting": "IFNγ‐secreting T‐cells; BALB/c mice, 10 nmol s.c., days 1, 8 and 15, n = 3, IFNγ ELISpot day 21", "value": "immunogenic in conventional BALB/c mice"}]}, {"compound": "SLLMWITQC [NY‐ESO‐1_157‐165]", "values": [{"measurement": "Binding to HLA‐A2 (in words)", "setting": "HLA‐A2", "value": "able to bind to HLA‐A2"}, {"measurement": "Immunogenicity / T‐cell reactivation (in words)", "setting": "CD8+ cells", "value": "spontaneously immunogenic; also recorded: reactivate T‐cell responses (CD8+ cells)"}]}]}
